Common to all, as to test: MIC, broth-microdilution (CLSI VET01-A4)
Common to all, as to type: cell-based

Experiment [1] has as its system Mannheimia haemolytica MH 6357 (M7/2, reference strain, cattle infection strain). Conditions: Mannheimia haemolytica MH 6357; for MIC: read-out: MIC MH 6357. As to the method: (§1) The Minimum inhibitory concentrations (MIC) of compounds according to the invention for a number of veterinary bacterial pathogens were determined by the broth-microdilution method according to CLSI document VET01-A4.
(§2) Microdilution trays containing a doubling dilution series of the test compound were used for the tests. The MIC results were interpreted according to the CLSI documents VET01-S3. The lowest concentration of compound at which no visible growth (i.e. no turbidity) detected by the unaided eye was recorded as the MIC.
(§3) The Minimum inhibitory concentrations (MIC) of compounds according to the invention were determined by the broth-microdilution method according to CLSI document VET01-A4.
(§4) Microdilution trays containing a doubling dilution series of the test compound were used for the tests.
(§5) The MIC results were interpreted according to the CLSI documents VET01-S3. The lowest concentration of compound at which no visible growth (i.e. no turbidity) detected by the unaided eye was recorded as the MIC.

Experiment [2] concerns Pasteurella multocida PM 6391 (ATCC 43137, reference strain). The following applies: Pasteurella multocida PM 6391. As to the method: as §1, §2, §3, §4, §5
Experiment [3] has as its system Pasteurella multocida PM 12080 (IV102277-0093, BRD field isolate). Conditions: Pasteurella multocida PM 12080. As to the method:
as §1, §2, §3, §4, §5

Experiment [4] deals with Mannheimia haemolytica MH 12587 (1071, BRD field isolate, macrolide-resistance: erm+, E+). Conditions: Mannheimia haemolytica MH 12587, macrolide-resistant. The method, then:
as §1, §2, §3, §4, §5

Experiment [5] deals with Pasteurella multocida PM 6267 (P 2225 (L386), reference strain, mouse infection strain). Conditions: Pasteurella multocida PM 6267. As to the method:
as §1, §2, §3, §4, §5

The test system of experiment [6] is Mannheimia haemolytica MH 6374 (ATCC 33396, reference strain). Conditions: Mannheimia haemolytica MH 6374; for MIC: read-out: MIC MH 6374. As to the method: as §1, §2, §3, §4, §5
The test system of experiment [7] is Mannheimia haemolytica MH 13093 (XB0472-6014.1, BRD field isolate). As to the method:
as §1, §2

Experiment [8] relates to Mannheimia haemolytica MH 10720 (154, BRD field isolate). The following applies: Mannheimia haemolytica MH 10720. As to the method:
as §1, §2, §3, §4, §5

≈ marks a conversion by molar mass, not a printed value.

As to `C[C@@H](O)[C@H](NC(=O)c1ccc(C#Cc2ccc(CNCc3ccc(F)cc3)cc2)cc1)C(=O)NO` [Compound 475], the results for the MIC in experiment [1], in experiment [6] and in experiment [7] were 0.2 µM (≈ 0.0951 µg/mL), 0.4 µM (≈ 0.19 µg/mL) and 0.8 µM (≈ 0.38 µg/mL), respectively. In addition, the “MIC PM 6391” value in experiment [2] is “<=0.1 μM”. Besides, in experiment [3], the “MIC PM 12080” value is on record as “<=0.1 μM”. Further, the “MIC MH 12587” value in experiment [4] is 0.8 µM (≈ 0.38 µg/mL). Moreover, the “MIC PM 6267” value in experiment [5] is given as “<=0.1 μM”.

Consider `CC(O)C(NC(=O)c1ccc(C#CC#CC=CCN(C)Cc2ccccc2)cc1)C(=O)NO` (stereo not shown) [Compound 452], for which the MIC in experiment [1] is given as 0.2 µM (≈ 0.0891 µg/mL); in experiment [6] it was 0.4 µM (≈ 0.178 µg/mL); in experiment [7], 0.8 µM (≈ 0.356 µg/mL). In experiment [2], the “MIC PM 6391” value was “<=0.1 μM”. For the same molecule, in experiment [3], the “MIC PM 12080” value is “<=0.1 μM”. In addition, the “MIC MH 12587” value in experiment [4] came out at 0.8 µM (≈ 0.356 µg/mL). The “MIC PM 6267” value in experiment [5] is “<=0.1 μM”.

Turning to `Cc1cnc(CNCc2ccc(C#Cc3ccc(C(=O)N[C@H](C(=O)NO)[C@@H](C)O)cc3)cc2)o1` [Compound 474], the “MIC MH 10720” value in experiment [8] is recorded as “<=0.1 μM”. For the same molecule, the MIC in experiment [1] is 0.2 µM (≈ 0.0925 µg/mL); in experiment [6], 0.4 µM (≈ 0.185 µg/mL); in experiment [7] it was 0.8 µM (≈ 0.37 µg/mL). Further, the “MIC PM 6391” value in experiment [2] is listed as “<=0.1 μM”. For the same molecule, in experiment [3], the “MIC PM 12080” value is “<=0.1 μM”. Further, the “MIC MH 12587” value in experiment [4] came to 0.8 µM (≈ 0.37 µg/mL). The “MIC PM 6267” value in experiment [5] is listed as “<=0.1 μM”.

`C[C@@H](O)[C@H](NC(=O)c1ccc(C#Cc2ccc(CN3CC=CC3)s2)cc1)C(=O)NO` [Compound 478]: the “MIC MH 10720” value in experiment [8] is recorded as “<=0.1 μM”. The “MIC MH 6357” value in experiment [1] is reported as “<=0.1 μM”. Besides, in experiment [2], the “MIC PM 6391” value was “<=0.1 μM”. Also, the “MIC PM 12080” value in experiment [3] is recorded as “<=0.1 μM”. Also, the “MIC MH 12587” value in experiment [4] came out at 0.4 µM (≈ 0.17 µg/mL). Also, the “MIC PM 6267” value in experiment [5] is “<=0.1 μM”. The “MIC MH 6374” value in experiment [6] is given as “<=0.1 μM”. The MIC in experiment [7] turned out to be 0.2 µM (≈ 0.0851 µg/mL).

Take `C#CCNCc1ccc(C#Cc2ccc(C(=O)N[C@H](C(=O)NO)[C@@H](C)O)cc2)cc1` [C. 469]: in experiment [8], the “MIC MH 10720” value is listed as “<=0.1 μM”. Besides, the MIC in experiment [1] is listed as 0.2 µM (≈ 0.0811 µg/mL); in experiment [7], 0.4 µM (≈ 0.162 µg/mL). Also, in experiment [2], the “MIC PM 6391” value was “<=0.1 μM”. Further, the “MIC PM 12080” value in experiment [3] was “<=0.1 μM”. For the same molecule, the “MIC MH 12587” value in experiment [4] was determined as 0.4 µM (≈ 0.162 µg/mL). The “MIC PM 6267” value in experiment [5] is recorded as “<=0.1 μM”. Besides, the “MIC MH 6374” value in experiment [6] is “<=0.1 μM”.

Take `C[C@@H](O)[C@H](NC(=O)c1ccc(C#Cc2ccc(CNCC(F)(F)F)s2)cc1)C(=O)NO` [Compound 477]: in experiment [8], the “MIC MH 10720” value is “<=0.1 μM”. In addition, in experiment [1], the “MIC MH 6357” value is listed as “<=0.1 μM”. Besides, the “MIC PM 6391” value in experiment [2] is reported as “<=0.1 μM”. For the same molecule, in experiment [3], the “MIC PM 12080” value is recorded as “<=0.1 μM”. The “MIC MH 12587” value in experiment [4] came to 0.4 µM (≈ 0.182 µg/mL). Also, the “MIC PM 6267” value in experiment [5] is on record as “<=0.1 μM”. For the same molecule, the MIC in experiment [6] amounted to 0.2 µM (≈ 0.0911 µg/mL); in experiment [7], 0.4 µM (≈ 0.182 µg/mL).

`CC(O)C(NC(=O)c1ccc(C#CC#CC=CCNCc2ccc(Cl)cc2)cc1)C(=O)NO` (stereo not shown) [Compound 453]: the “MIC MH 10720” value in experiment [8] was “<=0.1 μM”. Moreover, the MIC in experiment [1] is on record as 1.6 µM (≈ 0.745 µg/mL); in experiment [6], 0.4 µM (≈ 0.186 µg/mL); in experiment [7] it was 1.6 µM (≈ 0.745 µg/mL). The “MIC PM 6391” value in experiment [2] is listed as “<=0.1 μM”. Further, the “MIC PM 12080” value in experiment [3] is reported as “<=0.1 μM”. Also, the “MIC MH 12587” value in experiment [4] was 1.6 µM (≈ 0.745 µg/mL). In experiment [5], the “MIC PM 6267” value is on record as “<=0.1 μM”.

On to `Cc1cnc(CNCc2ccc(C#Cc3ccc(C(=O)N[C@H](C(=O)NO)[C@@H](C)O)cc3)cn2)o1` [Compound 495], for which the “MIC MH 10720” value in experiment [8] is listed as “<=0.1 μM”. In addition, the MIC was 0.4 µM (≈ 0.185 µg/mL) in experiment [1], 1.6 µM (≈ 0.742 µg/mL) in experiment [6] and 1.6 µM (≈ 0.742 µg/mL) in experiment [7]. In addition, the “MIC PM 6391” value in experiment [2] is “<=0.1 μM”. Moreover, the “MIC PM 12080” value in experiment [3] is recorded as “<=0.1 μM”. Also, the “MIC MH 12587” value in experiment [4] came out at 1.6 µM (≈ 0.742 µg/mL). Moreover, the “MIC PM 6267” value in experiment [5] is “<=0.1 μM”.

On to `CC(O)C(NC(=O)c1ccc(C#CC#CC=CCNCc2ccnc(Cl)c2)cc1)C(=O)NO` (stereo not shown) [Compound 461], for which the “MIC MH 10720” value in experiment [8] is reported as “<=0.1 μM”. In addition, the MIC in experiment [1] was 0.4 µM (≈ 0.187 µg/mL); in experiment [6], 0.4 µM (≈ 0.187 µg/mL); in experiment [7] it was 1.6 µM (≈ 0.747 µg/mL). Also, in experiment [2], the “MIC PM 6391” value is on record as “<=0.1 μM”. The “MIC PM 12080” value in experiment [3] was “<=0.1 μM”. Moreover, the “MIC MH 12587” value in experiment [4] was determined as 1.6 µM (≈ 0.747 µg/mL). Also, in experiment [5], the “MIC PM 6267” value was “<=0.1 μM”.
